Measured values: patent US20230332230A1, “BIOMARKERS AND USES THEREOF IN THE TREATMENT OF CHRONIC HEPATITIS B INFECTION” (Janssen Sciences Ireland Unlimited Company, priority 2020, published 2023)

Key:
Assay type in all cases: in vivo, human
[1] = test system: chronic hepatitis B (CHB) patients; assay: Time to virological relapse after discontinuation of NUC treatment (Cox proportional hazard regression); settings: for HR: hazard ratio for virological relapse after stop of treatment, treatment regimen tenofovir vs entecavir
Description: (§1) Patients and Study Design: In this multi-center prospective study in Taiwan, 242 CHB patients were enrolled while in their last half year of a minimum 3-year treatment regimen with direct antivirals. Of them, 47 were excluded due to protocol violation, screening failure, lost to follow-up, withdrawal by the subject, use of immune related therapy, or on-treatment clinical relapse. An additional 14 were excluded as the analysis required patients to be hepatitis B e-antigen (HBeAg) negative, hepatitis virus (HBV) DNA < 60 IU/mL, and alanine transaminase (ALT) < 80 U/L at the last on-treatment visit, leaving 186 patients eligible for analysis.
(§2) Patients were followed for up to two years after treatment discontinuation while assessing virological and clinical relapse, provided that treatment was not re-initiated. Virological relapse was defined as HBV DNA ≥ 2000 IU/mL. Clinical relapse was defined as ALT level ≥ 2x ULN in addition to a virological relapse. A patient was denoted a sustained clinical responder in case no clinical and no virological relapse occurred during the entire follow-up period after treatment cessation.
(§3) Statistical Analysis: Continuous variables are presented as means ± standard deviations, categorical variables by counts and percentages. The Student t test and Fisher exact test were used to compare continuous and categorical covariates, respectively, between groups. Cumulative incidence of virological and clinical relapse after stop of treatment was assessed by Kaplan-Meier curves including the log-rank test. Cox proportional hazard regression analysis was applied for univariate and multivariate models of time to virological and clinical relapse. To assess associations to sustained clinical response, logistic regression analysis was performed. All statistical analyses were executed within the R(3.4.3) statistical software. Statistical tests were two-sided and considered significant at the 0.05 significance level.
(§4) Statistical Analysis of Genetics Data: All the statistical analyses were performed in R (3.4.3). The association between the SNPs and the time to clinical relapse and time to viral relapse was assessed using a Cox proportional hazard model, considering the prior treatment. • Surv(TIME_VIRAL_RELAPSE,STATUS_VIRAL_RELAPSE) ~ GENETIC + LAST_TREATMENT • Surv(TIME_CLINICAL _RELAPSE,STATUS_CLINICAL_RELAPSE) ~ GENETIC + LAST_TREATMENT
(§5) Merge With Genetic Data: For both clinical and virological relapse, the significant clinical covariates (Table 4 and Table 5) are merged with the corresponding significant hits from the GWAS analysis. Cox proportional regression analysis with lasso regularization is applied to assess the combined association of the clinical and genetic covariates to relapse. Note that a threshold was set to the absolute values of the coefficients to be included in the final Cox model, equal to 0.35 and 0.2 for clinical and virological relapse respectively.
(§6) Cumulative incidence of virological and clinical relapse after stop of treatment was assessed by Kaplan-Meier curves. In addition, Cox proportional hazard regression analysis (Therneau Terry M., et al., Statistics in Medicine. 2001, 20(13):2053-2054) was applied, obtaining univariate and multivariate models for time to virological and clinical relapse (model fits are provided in Table 23a and Table 23b for virological and clinical relapse respectively).
(§7) Statistical Analysis of Genetics Data: Considering that HBsAg status at the end of treatment and treatment regimen were predictive for onset of relapse, the association between the SNPs and onset of relapse was assessed using a Cox model^1 including HBsAg level at the last visit on treatment (high (≥ 100 IU/mL) vs. low (< 100 IU/mL)) and the antiviral treatment at enrollment (tenofovir vs. entecavir) as main effects. […]

[2] = test system: chronic hepatitis B (CHB) patients; assay: Time to clinical relapse after discontinuation of NUC treatment (Cox proportional hazard regression)
Description: as §1, §2, §3, §4, §5, §6, §7

[3] = test system: chronic hepatitis B (CHB) patients; assay: Sustained clinical response after discontinuation of NUC treatment (logistic regression)
Description: Patients and Study Design: In this multi-center prospective study in Taiwan, 242 CHB patients were enrolled while in their last half year of a minimum 3-year treatment regimen with direct antivirals. Of them, 47 were excluded due to protocol violation, screening failure, lost to follow-up, withdrawal by the subject, use of immune related therapy, or on-treatment clinical relapse. An additional 14 were excluded as the analysis required patients to be hepatitis B e-antigen (HBeAg) negative, hepatitis virus (HBV) DNA < 60 IU/mL, and alanine transaminase (ALT) < 80 U/L at the last on-treatment visit, leaving 186 patients eligible for analysis. Patients were followed for up to two years after treatment discontinuation while assessing virological and clinical relapse, provided that treatment was not re-initiated. Virological relapse was defined as HBV DNA ≥ 2000 IU/mL. Clinical relapse was defined as ALT level ≥ 2x ULN in addition to a virological relapse. […] Cumulative incidence of virological and clinical relapse after stop of treatment was assessed by Kaplan-Meier curves including the log-rank test. […] Considering that HBsAg status was representative of disease progression, the association between the SNPs and sustained clinical response was assessed using a logistic model, considering HBsAg levels (high (≥ 100 IU/mL) vs. low (< 100 IU/mL)) at the last visit before end of antiviral treatment. […]

[4] = test system: chronic hepatitis B (CHB) patients; assay: Logistic regression model predicting clinical relapse before 6 months after stop of treatment; settings: Table 12; model with treatment regimen, EOT HBsAg and all SNPs predicting CR
Procedure: Prediction of Clinical Relapse: The receiver operating characteristic (ROC) curve was analyzed for treatment regimen, EOT HBsAg (≥ 100 IU/mL vs < 100 IU/mL), rs4668818, rs948006, rs2934456, rs77586835, rs75876539, rs8050261, rs1542951, rs231770, rs9277535, or a combination of these covariates, in predicting clinical relapse (CR) after stop of treatment.

[5] = test system: chronic hepatitis B (CHB) patients; assay: Logistic regression model predicting viral relapse before 3 months after stop of treatment; settings: Table 13; model with treatment regimen, EOT HBsAg, baseline HBeAg status and all SNPs predicting VR
Procedure: Prediction of Virological Relapse: The receiver operating characteristic (ROC) curve was analyzed for treatment regimen, EOT HBsAg (≥ 100 IU/mL vs < 100 IU/mL), baseline HBeAg status, all 30 SNPs associated to virological relapse (VR), or a combination of these covariates, in predicting virological relapse (VR) after stop of treatment are represented on FIG. 22 (3 months), FIG. 23 (6 months), FIG. 24 (1 year) and FIG. 25 (2 years).

[6] = later after stopping entecavir treatment compared to tenofovir treatment, Example 1

`C=C1[C@H](CO)[C@@H](O)C[C@@H]1n1cnc2c(=O)[nH]c(N)nc21` [Entecavir, entecavir] was tested, and the “Onset of virological relapse, average delay” value [1, 6] was 119 days, the “Onset of clinical relapse, average delay” value ([2]; among the 110 clinical relapsers, later after stopping entecavir compared to tenofovir, Example 3) was 100 days and the “Onset of clinical relapse, average delay” value [2, 6] was 115 days.
With `C[C@H](Cn1cnc2c(N)ncnc21)OCP(=O)(O)O` [Tenofovir, tenofovir] the “Sustained clinical response, univariate analysis OR (95% CI)” value ([3]; Table 6, treatment regimen vs entecavir) was 0.79 (0.29-2.03), the “Sustained clinical response, univariate analysis OR (95% CI)” value ([3]; Table 15, Example 2, vs entecavir) was 0.79 (0.29-2.03) and the “Virological relapse, multivariate analysis HR (95% CI)” value ([1]; Table 5, Example 1, Cox regression, treatment regimen vs entecavir, after stop of treatment) was 3.02. For the same molecule, the “Virological relapse, univariate analysis HR (95% CI)” value ([1]; Table 5, Cox regression, treatment regimen vs entecavir, after stop of treatment, N = 186) was 2.49 (1.77-3.49), the “Time to virological relapse, lasso regression, mean estimated hazard ratio” value ([1]; Table 11, clinical and genetic covariates, mean across 1000 iterations, vs entecavir) was 2.662 and the “Virological relapse, multivariate analysis HR (95% CI)” value ([1]; Table 23a, Example 3, multivariate with age, baseline HBeAg, EOT HBsAg, vs entecavir) was 2.97 (2.10-4.20). For the same molecule, the “Virological relapse, multivariate analysis HR (95% CI)” value ([1]; Table 23a, Example 3, multivariate with age, baseline HBeAg, EOT HBsAg, vs entecavir, listed as tenofovir) was 2.97, the “Virological relapse, univariate analysis HR (95% CI)” value ([1]; Table 23a, Example 3, vs entecavir) was 2.49 (1.77-3.49) and the HR ([1]; multivariate Cox model with HBsAg at end of treatment and all 33 SNPs (Table 27a)) was 7.26. For the same molecule, the HR ([1]; multivariate Cox model with HBsAg at end of treatment and the 17 Virological signature SNPs (Table 27b)) was 7.06, the “Clinical relapse before 6 months, odds ratio (Estimate)” value [4] was 4.008 and the “Clinical relapse, multivariate analysis HR (95% CI)” value ([2]; Table 4, Example 1, Cox regression, treatment regimen vs entecavir, after stop of treatment) was 1.78 (1.20-2.64). The “Clinical relapse, multivariate analysis HR (95% CI)” value ([2]; Table 4, Example 1, Cox regression, treatment regimen vs entecavir, after stop of treatment, listed as tenofovir) was 1.74, the “Clinical relapse, univariate analysis HR (95% CI)” value ([2]; Table 4, Cox regression, treatment regimen vs entecavir, after stop of treatment, N = 186) was 1.77 (1.19-2.62) and the “Time to clinical relapse, lasso regression, mean estimated hazard ratio” value ([2]; Table 10, clinical and genetic covariates, mean across 1000 iterations, vs entecavir) was 1.492. For the same molecule, the “Clinical relapse, multivariate analysis HR (95% CI)” value ([2]; Table 23b, Example 3, multivariate with age, EOT HBsAg, vs entecavir) was 1.87 (1.26-2.78), the “Clinical relapse, multivariate analysis HR (95% CI)” value ([2]; Table 23b, Example 3, multivariate with age, EOT HBsAg, vs entecavir, listed as tenofovir) was 1.80 and the “Clinical relapse, univariate analysis HR (95% CI)” value ([2]; Table 23b, Example 3, vs entecavir) was 1.77 (1.19-2.62). For the same molecule, the “Clinical relapse HR, Cox model including the Clinical SNP signature” value ([2]; Table 26b, HBsAg and treatment regimen as main effects plus six SNPs, vs entecavir) was 1.89, the HR ([2]; hazard ratio for clinical relapse after stop of treatment, treatment regimen tenofovir vs entecavir, multivariate Cox model with HBsAg at end of treatment and all nine SNPs) was 1.75 and the “Viral relapse before 3 months, odds ratio (Estimate)” value [5] was 3010.
